{"source": "ChEMBL document CHEMBL1135290", "about": "“Synthesis of sub-micromolar inhibitors of MraY by exploring the region originally occupied by the diazepanone ring in the liposidomycin structure” (Bioorg Med Chem Lett, 2002)", "data": [{"test": "Inhibitory activity against Translocase I", "units": {"IC50": "µM"}, "values": [{"smiles": "CCCCCCCCCCCCN(C)C[C@H](O[C@@H]1O[C@H](CN)[C@@H](O)[C@H]1O)[C@@H]1C[C@@H](O)[C@H](n2ccc(=O)[nH]c2=O)O1", "IC50": 0.23}, {"smiles": "NC[C@H]1O[C@@H](O[C@@H](CNCc2cccnc2)[C@@H]2C[C@@H](O)[C@H](n3ccc(=O)[nH]c3=O)O2)[C@H](O)[C@@H]1O", "IC50": 4.8}, {"smiles": "NC[C@H]1O[C@@H](O[C@@H](CNCc2ccc(SC(F)(F)F)cc2)[C@@H]2C[C@@H](O)[C@H](n3ccc(=O)[nH]c3=O)O2)[C@H](O)[C@@H]1O", "IC50": 0.31}, {"smiles": "NC[C@H]1O[C@@H](O[C@@H](CNCCc2cccc(C(F)(F)F)c2)[C@@H]2C[C@@H](O)[C@H](n3ccc(=O)[nH]c3=O)O2)[C@H](O)[C@@H]1O", "IC50": 0.22}, {"smiles": "CN1CCCC1CNC[C@H](O[C@@H]1O[C@H](CN)[C@@H](O)[C@H]1O)[C@@H]1C[C@@H](O)[C@H](n2ccc(=O)[nH]c2=O)O1", "note": "(stereo not given in full)", "IC50": 1.3}, {"smiles": "NC[C@H]1O[C@@H](O[C@@H](CNCC2COc3ccccc3O2)[C@@H]2C[C@@H](O)[C@H](n3ccc(=O)[nH]c3=O)O2)[C@H](O)[C@@H]1O", "note": "(stereo not given in full)", "IC50": 2.8}, {"smiles": "NC[C@H]1O[C@@H](O[C@@H](CNC(=O)c2ccc(C3CCCCC3)cc2)[C@@H]2C[C@@H](O)[C@H](n3ccc(=O)[nH]c3=O)O2)[C@H](O)[C@@H]1O", "IC50": 0.39}, {"smiles": "NC[C@H]1O[C@@H](O[C@@H](CN2CCCCC2)[C@@H]2C[C@@H](O)[C@H](n3ccc(=O)[nH]c3=O)O2)[C@H](O)[C@@H]1O", "IC50": 5.9}, {"smiles": "NC[C@H]1O[C@@H](O[C@@H](CNC(=O)Cc2ccc(-c3ccccc3)cc2)[C@@H]2C[C@@H](O)[C@H](n3ccc(=O)[nH]c3=O)O2)[C@H](O)[C@@H]1O", "IC50": 0.43}, {"smiles": "CC(C)c1ccc(C(=O)NC[C@H](O[C@@H]2O[C@H](CN)[C@@H](O)[C@H]2O)[C@@H]2C[C@@H](O)[C@H](n3ccc(=O)[nH]c3=O)O2)cc1", "IC50": 0.4}, {"smiles": "NC[C@H]1O[C@@H](O[C@@H](CNCc2ccc(OC(F)(F)F)cc2)[C@@H]2C[C@@H](O)[C@H](n3ccc(=O)[nH]c3=O)O2)[C@H](O)[C@@H]1O", "IC50": 0.3}, {"smiles": "COC(=O)c1ccc(CNC[C@H](O[C@@H]2O[C@H](CN)[C@@H](O)[C@H]2O)[C@@H]2C[C@@H](O)[C@H](n3ccc(=O)[nH]c3=O)O2)cc1", "IC50": 1.2}, {"smiles": "NC[C@H]1O[C@@H](OC[C@H]2O[C@@H](n3ccc(=O)[nH]c3=O)[C@H](O)[C@@H]2O)[C@H](O)[C@@H]1O", "IC50": 50}, {"smiles": "NC[C@H]1O[C@@H](O[C@@H](CNC(=O)c2cccc(OC(F)(F)F)c2)[C@@H]2C[C@@H](O)[C@H](n3ccc(=O)[nH]c3=O)O2)[C@H](O)[C@@H]1O", "IC50": 1}, {"smiles": "NC[C@H]1O[C@@H](O[C@@H](CNCc2cccs2)[C@@H]2C[C@@H](O)[C@H](n3ccc(=O)[nH]c3=O)O2)[C@H](O)[C@@H]1O", "IC50": 2.3}, {"smiles": "NC[C@H]1O[C@@H](O[C@@H](CNC(=O)c2ccc(-c3ccccc3)cc2)[C@@H]2C[C@@H](O)[C@H](n3ccc(=O)[nH]c3=O)O2)[C@H](O)[C@@H]1O", "IC50": 0.25}, {"smiles": "NC[C@H]1O[C@@H](O[C@@H](CO)[C@H]2O[C@@H](n3ccc(=O)[nH]c3=O)[C@H](O)[C@@H]2O)[C@H](O)[C@@H]1O", "IC50": 5}, {"smiles": "NC[C@H]1O[C@@H](O[C@@H](CNCCc2ccc(Oc3ccccc3)cc2)[C@@H]2C[C@@H](O)[C@H](n3ccc(=O)[nH]c3=O)O2)[C@H](O)[C@@H]1O", "IC50": 0.31}, {"smiles": "Cc1ccc(CCNC[C@H](O[C@@H]2O[C@H](CN)[C@@H](O)[C@H]2O)[C@@H]2C[C@@H](O)[C@H](n3ccc(=O)[nH]c3=O)O2)cc1", "IC50": 0.61}, {"smiles": "NC[C@H]1O[C@@H](O[C@@H](CNC(=O)Nc2ccc(C3CCCCC3)cc2)[C@@H]2C[C@@H](O)[C@H](n3ccc(=O)[nH]c3=O)O2)[C@H](O)[C@@H]1O", "IC50": 0.16}, {"smiles": "NC[C@H]1O[C@@H](O[C@@H](CNCCc2ccccc2)[C@@H]2C[C@@H](O)[C@H](n3ccc(=O)[nH]c3=O)O2)[C@H](O)[C@@H]1O", "IC50": 1.6}, {"smiles": "NC[C@H]1O[C@@H](O[C@@H](CNC(=O)c2ccc(Oc3ccccc3)cc2)[C@@H]2C[C@@H](O)[C@H](n3ccc(=O)[nH]c3=O)O2)[C@H](O)[C@@H]1O", "IC50": 0.2}, {"smiles": "NC[C@H]1O[C@@H](O[C@@H](CNCc2ccc(C(=O)O)cc2)[C@@H]2C[C@@H](O)[C@H](n3ccc(=O)[nH]c3=O)O2)[C@H](O)[C@@H]1O", "IC50": 6.5}, {"smiles": "NC[C@H]1O[C@@H](O[C@@H](CNCCCN2CCOCC2)[C@@H]2C[C@@H](O)[C@H](n3ccc(=O)[nH]c3=O)O2)[C@H](O)[C@@H]1O", "IC50": 3.8}, {"smiles": "CN(Cc1ccc(-c2ccccc2)cc1)C[C@H](O[C@@H]1O[C@H](CN)[C@@H](O)[C@H]1O)[C@@H]1C[C@@H](O)[C@H](n2ccc(=O)[nH]c2=O)O1", "IC50": 0.17}, {"smiles": "NC[C@H]1O[C@@H](O[C@@H](CNc2ccc(Oc3ccccc3)cc2)[C@@H]2C[C@@H](O)[C@H](n3ccc(=O)[nH]c3=O)O2)[C@H](O)[C@@H]1O", "IC50": 0.2}, {"smiles": "NC[C@H]1O[C@@H](O[C@@H](CNCCc2ccc(Cl)cc2)[C@@H]2C[C@@H](O)[C@H](n3ccc(=O)[nH]c3=O)O2)[C@H](O)[C@@H]1O", "IC50": 0.17}, {"smiles": "NC[C@H]1O[C@@H](O[C@@H](CNC(=O)Nc2ccc(Oc3ccccc3)cc2)[C@@H]2C[C@@H](O)[C@H](n3ccc(=O)[nH]c3=O)O2)[C@H](O)[C@@H]1O", "IC50": 0.14}, {"smiles": "NC[C@H]1O[C@@H](O[C@@H](CNCc2ccncc2)[C@@H]2C[C@@H](O)[C@H](n3ccc(=O)[nH]c3=O)O2)[C@H](O)[C@@H]1O", "IC50": 3.4}, {"smiles": "NC[C@H]1O[C@@H](O[C@@H](CNCCCN2CCCC2=O)[C@@H]2C[C@@H](O)[C@H](n3ccc(=O)[nH]c3=O)O2)[C@H](O)[C@@H]1O", "IC50": 7}, {"smiles": "NC[C@H]1O[C@@H](O[C@@H](CNCCCn2ccnc2)[C@@H]2C[C@@H](O)[C@H](n3ccc(=O)[nH]c3=O)O2)[C@H](O)[C@@H]1O", "IC50": 3.8}, {"smiles": "NC[C@H]1O[C@@H](O[C@@H](CN2CCC(Cc3ccccc3)CC2)[C@@H]2C[C@@H](O)[C@H](n3ccc(=O)[nH]c3=O)O2)[C@H](O)[C@@H]1O", "IC50": 0.35}, {"smiles": "NC[C@H]1O[C@@H](O[C@@H](CNCC2CCCO2)[C@@H]2C[C@@H](O)[C@H](n3ccc(=O)[nH]c3=O)O2)[C@H](O)[C@@H]1O", "note": "(stereo not given in full)", "IC50": 9.2}, {"smiles": "CN1CCCC1CCNC[C@H](O[C@@H]1O[C@H](CN)[C@@H](O)[C@H]1O)[C@@H]1C[C@@H](O)[C@H](n2ccc(=O)[nH]c2=O)O1", "note": "(stereo not given in full)", "IC50": 3.9}, {"smiles": "CC(C)(C)c1ccc(CNC[C@H](O[C@@H]2O[C@H](CN)[C@@H](O)[C@H]2O)[C@@H]2C[C@@H](O)[C@H](n3ccc(=O)[nH]c3=O)O2)cc1", "IC50": 0.58}, {"smiles": "CSCC[C@H](NC(=O)N[C@@H](Cc1cccc(O)c1)C(=O)O)C(=O)NC(C(=O)N/C=C1\\C[C@@H](O)[C@H](n2ccc(=O)[nH]c2=O)O1)[C@H](C)N(C)C(=O)[C@@H](N)Cc1cccc(O)c1", "note": "(stereo not given in full)", "IC50": 0.065}, {"smiles": "COc1ccc(CNC[C@H](O[C@@H]2O[C@H](CN)[C@@H](O)[C@H]2O)[C@@H]2C[C@@H](O)[C@H](n3ccc(=O)[nH]c3=O)O2)cc1OC", "IC50": 4}, {"smiles": "CCCCCCCNC[C@H](O[C@@H]1O[C@H](CN)[C@@H](O)[C@H]1O)[C@@H]1C[C@@H](O)[C@H](n2ccc(=O)[nH]c2=O)O1", "IC50": 0.74}, {"smiles": "CCCCCN(CCCCC)C[C@H](O[C@@H]1O[C@H](CN)[C@@H](O)[C@H]1O)[C@@H]1C[C@@H](O)[C@H](n2ccc(=O)[nH]c2=O)O1", "IC50": 9.7}, {"smiles": "NC[C@H]1O[C@@H](O[C@@H](CN2CCN(CC(=O)N3CCCC3)CC2)[C@@H]2C[C@@H](O)[C@H](n3ccc(=O)[nH]c3=O)O2)[C@H](O)[C@@H]1O", "IC50": 1.9}]}]}
